From US5521293A (Lever Brothers Company, Division of Conopco, Inc., priority 1995, dated 1996)
Read-outs that look alike come from different tables or passages of the source.

Legend:
[1] = Krafft point of aqueous dispersion of aldonamide; type: physicochemical; details: for Krafft Point (0.1%): 0.1% in water by weight; for Krafft Point (1.0%): 1.0% in water by weight
Description: The temperature at and above which surfactants begin to form micelles instead of precipitates is referred to as the Krafft point (Tk) and at this temperature the solubility of a surfactant becomes equal to its CMC (numerical value at which micelles are formed).
The Krafft point was measured by preparing 650 ml of a 0.1% or 1.0% dispersion of aldonamide in water by weight. If the surfactant was soluble at room temperature, the solution was slowly cooled to 0° C. […] (less than zero). If it precipitated out of solution, the temperature at which precipitation occurs was taken as the Krafft point.
If the surfactant was insoluble at :room temperature, the dispersion was slowly heated until the solution became homogeneous. It was then slowly cooled until precipitation occurred. The temperature at which the surfactant precipitates out of solution upon cooling was taken as the Krafft point.

[2] = Water solubility; type: physicochemical; details: in words
[3] = Effectiveness in reducing surface tension (surface pressure at the CMC); type: physicochemical; details: 60° C., estimated by linear extrapolation
Text: Effectiveness of a surfactant in reducing surface tension is defined as the maximum reduction in surface tension that can be obtained regardless of the bulk phase surfactant concentration.
As mentioned before, surface tension reduction depends on the replacement of water molecules at the interface by surfactant molecules, therefore the effectiveness of a surfactant in reducing interfacial surface tension should reflect the saturated concentration of surfactant at the interface relative to that in bulk liquid phase. During this process the surface tension of water steadily decreases as bulk phase surfactant concentration increases. This will continue until the concentration reaches the critical micelle concentration (CMC), above which the surface tension remains nearly unchanged and the interface is saturated with surfactant. The surface tension at the CMC is therefore very close to the minimum interfacial tension or maximum surface pressure that the system can achieve. The surface pressure at this point, cmc, is a suitable measure of the effectiveness of a surfactant in reducing surface tension and is given as:
cmc =20+2.3 nRT(Γmax) log[CMC/C20 ]
n=1 which represents the number of ions whose surface concentration changes with the change in liquid phase surfactant concentration.
R=8.314×107 ergs/mol K (Gas Constant)
Γmax =-1/2·303RT(∂γ/∂log [Conc])T=3.85×10^-10 mole/cm^2
CMC/C20 =is the ratio of the critical micelle concentration to the bulk phase surfactant concentration necessary to reduce the surface tension of water by 20 dyn/cm.
The effectiveness of various surfactants in reducing surface tension ( cmc) were determined and are set forth below: […]

[4] = Effectiveness of adsorption at the interface (surface excess concentration at surface saturation); type: physicochemical; details: 60° C., estimated by linear extrapolation
Text: The surface excess concentration at surface saturation (Γmax) is defined as a measure of the effectiveness of surfactant adsorption at the water/air interface and represents the maximum value to which adsorption can be obtained. Effectiveness of adsorption is related to the interfacial area occupied by the surfactant molecule. The smaller the effective cross-sectional area of a surfactant at the interface, the greater its effectiveness of adsorption. The effectiveness of adsorption is an important factor in determining surfactant properties such as detergency, foaming, wetting or emulsification. While not wishing to be bound by theory, it is believed that surfactants that absorb effectively at the interface tend have tightly packed coherent interfacial films and often provide better surfactant benefits than those with loosely packed noncoherent films. The effectiveness of adsorption of C8 /C10 oxypropyl D-gluconarnide was determined using the Gibbs equation given as:
Γmax =-1/2.303RT(∂γ/∂log[Conc])T
(∂γ/∂log[Conc)T =-24.574971 ergs/cm^2 (which is equivalent to the
slope of a plot of γ versus log[Conc]) R=8.3 14×10^7 ergs/mol K (Gas Constant)
The surface excess concentration at surface saturation (Γmax) of various surfactants were determined and are set forth below: […]

[5] = Area per molecule at the interface; type: physicochemical; details: 60° C., estimated by linear extrapolation
Text: The area per molecule of a surfactant at the water/air interface provides information on the degree of packing and the orientation of the adsorbed surfactant molecule. While not wishing to be bound by theory, it is believed that surfactants that have small area per molecule values tend to pack more closely at the interface than those with large area per molecule values. From the surface excess concentration at surface saturation (Γmax), the area per molecule (am) of C8 /C10 oxypropyl D-gluconamide was determined and is given by:
am =1×10^16 /Nav Γmax
Γmax =-1/2·303RT(∂γ/∂log[Conc])T
NAV =6.0221×10^23 per gram mole (Avogadro's Number)
The area per molecule (am) of several surfactants were-determined and are set forth below: […]

[6] = cited from earlier work
[7] = cited from earlier work; remark: listed apart in the source
[8] = cited from earlier work; remark: listed apart in the source
[9] = Ross-Miles foam height; type: physicochemical; details: 0.1% aldonamide, 40° C. (or about 5°-10° C. above Krafft point if not soluble), 0 ppm hardness; for Foam Height Final: after 10 minutes
Description: (§1) Since most of the foaming data on surfactants is typically obtained by the Ross-Miles Foam Height Assay (Ross, J. and Miles, G. D. Am Soc. for Testing Material Method D1173-63 Philadelphia, Pa. (1953); Oil & Soap (1958) 62:1260) the foaming ability of these surfactants were acquired using this method.
(§2) In the Ross-Miles method, 200 mL of a surfactant solution contained in a pipette of specified dimensions with a 2.9-mm-i.d. orifice is allowed to fall 90 cm onto 50 mL of the same solution contained in a cylindrical vessel maintained at a given temperature by means of a water jacket. The height of the foam produced in the cylindrical vessel is read immediately after all the solution has run out of the pipette and then again after a given amount of time.
(§3) Using this method, the foam production (initial foam height in mm) and foam stability (final foam height after 10 minutes in mm) were measured at 0.1% aldonamide concentration, 40° C. and 0 ppm (parts per million) hardness. Aldonamides that were not soluble at 40° C. were measured at about 5°-10° C. above their Krafft points.

[10] = Ross-Miles foam height; type: physicochemical; parameters: key: X: low water solubility, foam height cannot be measured; details: Example 84; for Foam Height Final (symbol): after 10 minutes
Description: as §1, §2, §3

For `CCCCCCCCCCCCNC(=O)[C@H](O)[C@H](O)[C@@H](O)[C@@H](O)CO` [L, C12 L-Mannonamide], the “Krafft Point (0.1%)” value [1] was > 100 °C and the water solubility [2] was “Insoluble”.
In the case of `CCCCCCCCCCCCOCCOCCOCCOCCOCCO` [Dodecylpenta(oxyethylene) Ether], the “surface pressure at the CMC (cmc)” value [3] is reported as 40.7 dyn/cm, the “surface excess concentration at surface saturation (Γmax)” value (shortened to “surface excess concentration”) [4] is reported as 3.16 × 10^-10 mole/cm^2 and the “area per molecule (am)” value [5] is reported as 52.3 Å^2. The “surface pressure at the CMC (cmc)” value ([6]; 25° C.) was 41.5 dyn/cm, the “surface pressure at the CMC (cmc)” value ([6]; 40° C.) was 41.2 dyn/cm and the “surface excess concentration” value ([7]; 25° C.) was 3.31 × 10^-10 mole/cm^2. The “surface excess concentration” value ([7]; 40° C.) was 3.28 × 10^-10 mole/cm^2, the “area per molecule (am)” value ([8]; 25° C.) was 50.1 Å^2 and the “area per molecule (am)” value ([8]; 40° C.) was 50.6 Å^2.
With “Iso C10 Oxypropyl D-Glucoheptonamide [JJ]” the “Krafft Point (0.1%)” value [1] was 18 °C, the “Foam Height Final” value [9] was 204 mm and the “Foam Height Initial” value [9] was 215 mm.
For “C8 /C10 Oxypropyl D-Glucoheptonamide [II]”, the “Krafft Point (0.1%)” value [1] was 60 °C, the “Foam Height Final” value [9] was 90 mm and the “Foam Height Initial” value [9] was 221 mm.
In the case of Iso C10 Oxypropyl D-Gluconamide, the “Krafft Point (0.1%)” value [1] is reported as < 0 °C, the “Foam Height Final” value [9] is reported as 206 mm and the “Foam Height Initial” value [9] is reported as 213 mm.
In the case of `CCCCCCCCCCCCOCCOCCOCCOCCOCCOCCOCCOCCO` [Dodecylocta(oxyethylene) Ether], the “surface pressure at the CMC (cmc)” value [3] is reported as 36.3 dyn/cm, the “surface excess concentration” value [4] is reported as 2.40 × 10^-10 mole/cm^2 and the “area per molecule (am)” value [5] is reported as 69.0 Å^2. The “surface pressure at the CMC (cmc)” value ([6]; 25° C.) was 37.2 dyn/cm, the “surface pressure at the CMC (cmc)” value ([6]; 40° C.) was 37.3 dyn/cm and the “surface excess concentration” value ([7]; 25° C.) was 2.52 × 10^-10 mole/cm^2. For the same molecule, the “surface excess concentration” value ([7]; 40° C.) was 2.46 × 10^-10 mole/cm^2, the “area per molecule (am)” value ([8]; 25° C.) was 66.0 Å^2 and the “area per molecule (am)” value ([8]; 40° C.) was 67.4 Å^2.
For `CCCCCCCCCCCCNC(=O)[C@H](O)[C@H](O)[C@@H](O)[C@@H](O)[C@H](O)CO` [GG, C12 D-Glycero-L-Mannoheptonamide], the “Krafft Point (0.1%)” value [1] was > 100 °C and the water solubility [2] was “Insoluble”.
For “Iso C13 Oxypropylaminopropyl D-Gluconamide [DD]”, the “Krafft Point (0.1%)” value [1] was < 0 °C and the “Foam Height Final” value [9] was 178 mm.
In the case of `CCCCCCCCCCCCOCCOCCOCCOCCO` [Dodecyltetra(oxyethylene) Ether], the “surface pressure at the CMC (cmc)” value [3] is reported as 40.7 dyn/cm, the “surface excess concentration” value [4] is reported as 3.01 × 10^-10 mole/cm^2 and the “area per molecule (am)” value [5] is reported as 53.3 Å^2. The “surface pressure at the CMC (cmc)” value ([6]; 25° C.) was 43.4 dyn/cm, the “surface pressure at the CMC (cmc)” value ([6]; 40° C.) was 42.0 dyn/cm and the “surface excess concentration” value ([7]; 25° C.) was 3.63 × 10^-10 mole/cm^2. The “surface excess concentration” value ([7]; 40° C.) was 3.41 × 10^-10 mole/cm^2, the “area per molecule (am)” value ([8]; 25° C.) was 45.7 Å^2 and the “area per molecule (am)” value ([8]; 40° C.) was 48.7 Å^2.
For `CCCCCCCCCCCCOCCOCCOCCOCCOCCOCCOCCO` [Dodecylhepta(oxyethylene) Ether], the “surface pressure at the CMC (cmc)” value [3] was 36.8 dyn/cm, the “surface excess concentration” value [4] was 2.71 × 10^-10 mole/cm^2 and the “area per molecule (am)” value [5] was 61.0 Å^2. For the same molecule, the “surface pressure at the CMC (cmc)” value ([6]; 25° C.) was 38.3 dyn/cm, the “surface pressure at the CMC (cmc)” value ([6]; 40° C.) was 38.5 dyn/cm and the “surface excess concentration” value ([7]; 25° C.) was 2.90 × 10^-10 mole/cm^2. The “surface excess concentration” value ([7]; 40° C.) was 2.77 × 10^-10 mole/cm^2, the “area per molecule (am)” value ([8]; 25° C.) was 57.3 Å^2 and the “area per molecule (am)” value ([8]; 40° C.) was 59.9 Å^2.
In the case of “C12 -C15 Oxypropyl D-Glucoheptonamide [LL]”, the “Krafft Point (0.1%)” value [1] is reported as 68 °C, the “Foam Height Final” value [9] is reported as 97 mm and the “Foam Height Initial” value [9] is reported as 239 mm.
In the case of `CCCCCCCCCCCCCCCCCCNC(=O)[C@H](O)[C@@H](O)[C@H](O[C@@H]1O[C@H](CO)[C@H](O)[C@H](O)[C@H]1O)[C@H](O)CO` [UU, C18 D-Lactobionamide], the “Krafft Point (1.0%)” value [1] is reported as 82 °C, the “Foam Height Final (symbol)” value [10] is reported as “X” and the “Foam Height Initial (symbol)” value [10] is reported as “X”.
With `CCCCCCCCCCCCOCCOCCOCCO` [Dodecyltri(oxyethylene) Ether] the “surface pressure at the CMC (cmc)” value [3] was 41.4 dyn/cm, the “surface excess concentration” value [4] was 3.83 × 10^-10 mole/cm^2 and the “area per molecule (am)” value [5] was 45.4 Å^2. For the same molecule, the “surface pressure at the CMC (cmc)” value ([6]; 25° C.) was 44.1 dyn/cm, the “surface pressure at the CMC (cmc)” value ([6]; 40° C.) was 43.1 dyn/cm and the “surface excess concentration” value ([7]; 25° C.) was 3.98 × 10^-10 mole/cm^2. The “surface excess concentration” value ([7]; 40° C.) was 3.90 × 10^-10 mole/cm^2, the “area per molecule (am)” value ([8]; 25° C.) was 41.7 Å^2 and the “area per molecule (am)” value ([8]; 40° C.) was 42.5 Å^2.
In the case of oleylaminopropyl D-lactobionamide [DDD], the “Krafft Point (1.0%)” value [1] is reported as < 0 °C and the “Foam Height Initial” value [9] is reported as 169 mm.
With `CCCCCCCCCCCCNC(=O)[C@@H](O)[C@H](O)[C@H](O)[C@@H](O)CO` [K, C12 L-Galactonamide] the “Krafft Point (0.1%)” value [1] was > 100 °C and the water solubility [2] was “Insoluble”.
In the case of `CCCCCCCCCCCCCCCNC(=O)[C@H](O)[C@@H](O)[C@H](O[C@@H]1O[C@H](CO)[C@H](O)[C@H](O)[C@H]1O)[C@H](O)CO` [SS, C15 D-Lactobionamide], the “Krafft Point (1.0%)” value [1] is reported as 84 °C, the “Foam Height Final (symbol)” value [10] is reported as “X” and the “Foam Height Initial (symbol)” value [10] is reported as “X”.
In the case of `CCCCCCCCCCCCNC(=O)[C@H](O)[C@@H](O)[C@@H](O)[C@H](O)CO` [J, C12 D-Galactonamide], the “Krafft Point (0.1%)” value [1] is reported as > 100 °C and the water solubility [2] is reported as “Insoluble”.
